Read-outs that look alike come from different tables or passages of the source. Numbered stars: 1 amine (or outer) side, 2 acyl side, 3 side chain; on linkers, the order of the positions; unused ones are H or OH. Bridge positions count the residues as written; N and C are the ends. Square brackets hold non-standard residues; d marks the D form. Side chains are listed from the residue outwards. Peptide text beside a SMILES is read from it. * marks the point of attachment. C20 diacid = O=C(O)CCCCCCCCCCCCCCCCCCC(=O)*; γGlu = O=C(O)[C@H](CCC(=O)[*:2])N[*:1]; Hyp = O=C(O)[C@@H]1C[C@@H](O)CN1; AEEA = NCCOCCOCC(=O)O
How the values were obtained:
hAMY3 receptor = molecular target: T1, hAMY3 receptor (Homo sapiens, UniProt O60896+P30988); experiment: cAMP assay for in vitro receptor activation, hAMY3-R; type: cell-based
T1 sequence (P30988 25-474): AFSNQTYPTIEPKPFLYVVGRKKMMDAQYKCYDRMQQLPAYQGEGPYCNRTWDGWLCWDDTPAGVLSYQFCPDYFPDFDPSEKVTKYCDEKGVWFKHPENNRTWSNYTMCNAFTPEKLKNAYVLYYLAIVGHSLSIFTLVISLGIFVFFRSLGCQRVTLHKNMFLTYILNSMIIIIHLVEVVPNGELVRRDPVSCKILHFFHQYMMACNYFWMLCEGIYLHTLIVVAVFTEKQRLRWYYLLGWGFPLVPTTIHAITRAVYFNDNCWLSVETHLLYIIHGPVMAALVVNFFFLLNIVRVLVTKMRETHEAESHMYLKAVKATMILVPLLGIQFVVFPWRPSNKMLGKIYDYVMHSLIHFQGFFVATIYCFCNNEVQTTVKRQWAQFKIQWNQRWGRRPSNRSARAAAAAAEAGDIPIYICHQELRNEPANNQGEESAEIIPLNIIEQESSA
T1 sequence (O60896 24-148 partner): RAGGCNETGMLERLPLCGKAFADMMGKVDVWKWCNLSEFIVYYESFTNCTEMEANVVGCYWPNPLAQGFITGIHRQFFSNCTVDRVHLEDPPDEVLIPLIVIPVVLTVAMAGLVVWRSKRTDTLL
Summary of the method: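 Thawed cells from a sub-cloned monoclonal hAMY3-overexpressing line are plated in DPBS containing 0.05% casein and 0.5 mM IBMX. Test compounds are added immediately at graded doses for 30 min at room temperature. Reagents for cAMP detection are then added, and TR-FRET is recorded after one hour.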

[1] = Physical stability of peptide analogues (Thioflavin T fibrillation); type: physicochemical; details: maximum ThT signal normalized between hAMY maximum and buffer background; 40° C., shaking, four days; pH 7 per table title
Summary of the method: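 1 h in 50 mM NaOAc pH 4 / 50 mM NaPi pH 7; + ThT 4 μM final; 40 °C, 700 rpm linear shake 5 min pre-read; ex 450, em 480 nm q10 min × 4 d; LOESS smoothing; max signal normalised to hAMY max vs buffer blank.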

[2] = Acute food intake study in lean rats; type: in vivo, rat; details: single SC injection, lean healthy rats; for Average cumulative food intake: up to 48 h, P < 0.001 vs vehicle
Procedure: General Protocols for Acute Food Intake Study
The effect on cumulative food intake was measured in male Sprague Dawley rats (6 weeks of age, Taconic, Denmark) following a single dose using a fully automated food intake monitoring system (HM-2; MBRose ApS, Faaborg, Denmark), allowing for advanced synchronous real-time monitoring of food intake behaviour of individual animals. The animals were housed in groups of 4 in a light-, temperature-, and humidity-controlled room (a 12/12 LD cycle, lights on at 02:00 AM; 22±2° C.; 50% relative humidity). The mice had ad libitum access to regular chow diet (Altromin 1324, Brogaarden A/S, Lynge, Denmark) and domestic quality tap water. Mice arrived at day 7, and a minimum of 5 days of habituation to the system was allowed prior to beginning of the study. During these days, the animals were handled daily to accustom them to the experimental paradigm. On the day of dosing, the animals were randomized into groups according to body weight. Animals were fasted for four hours prior to dosing. Animals were dosed SC 30 or 180 min prior to lights out, and food intake data were collected automatically for a total of 48 h post-dosing with automatic food recordings every 5 min.

[3] = Chronic diet-induced obesity (DIO) study in rats; type: in vivo, rat; details: for Average body weight day 28 (gram): P < 0.001 vs vehicle
Description: General Protocols for Chronic Diet-Induced Obesity (DIO) Study
Sprague-Dawley rats (Taconic, Denmark) arrived at the age of 5 weeks. After one week of acclimation, they were evenly grouped based on their baseline body weight and offered ad libitum access a two-choice diet consisting of chow pellet (Altromin #1324, Brogaarden, Lynge, Denmark) and a high palatable high sugar/fat diet (1:1:1 mixture of Nutella (Ferrero, Alba, Italy), peanut butter (PCD, Rotterdam, Netherlands) and powdered standard chow (Altromin #1324, Brogaarden, Lynge, Denmark); 29.3% fat, 33.2% carbohydrate, and 18% protein) for up to 36 weeks. The rats were pair-housed throughout the study under controlled environmental conditions (12-hour light/dark cycle, lights off at 15:00; 22±1° C.; 50±10% relative humidity). Body weight, food and water intake were monitored daily during the entire period of the study. One day before the experiment, the rats were randomized according to body weight into experimental groups (n=9-10), which received compound or vehicle SC. QD (once daily) for 28 days.

hAM1 receptor = hAM1 receptor (Homo sapiens, UniProt O60895+Q16602); experiment: cAMP assay for in vitro receptor activation, hAM1-R; type: cell-based
Summary of the method: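 Read-out is intracellular cAMP as a measure of receptor activation. Cells stably overexpressing hAM1 were subcloned to a monoclonal line, then thawed and seeded at 8000 cells/well in DPBS with 0.05% casein and the phosphodiesterase inhibitor IBMX at 0.5 mM.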

[4] = cAMP assay, hAMY3 receptor, read-out: hAMY3R EC50
[5] = 1 nmol/kg SC once daily for 28 days
[6] = 3 nmol/kg SC once daily for 28 days
[7] = 10 nmol/kg SC once daily for 28 days
[8] = cAMP assay, hAM1 receptor, read-out: hAM1R EC50

Chain of hAM1 receptor (Q16602 23-461): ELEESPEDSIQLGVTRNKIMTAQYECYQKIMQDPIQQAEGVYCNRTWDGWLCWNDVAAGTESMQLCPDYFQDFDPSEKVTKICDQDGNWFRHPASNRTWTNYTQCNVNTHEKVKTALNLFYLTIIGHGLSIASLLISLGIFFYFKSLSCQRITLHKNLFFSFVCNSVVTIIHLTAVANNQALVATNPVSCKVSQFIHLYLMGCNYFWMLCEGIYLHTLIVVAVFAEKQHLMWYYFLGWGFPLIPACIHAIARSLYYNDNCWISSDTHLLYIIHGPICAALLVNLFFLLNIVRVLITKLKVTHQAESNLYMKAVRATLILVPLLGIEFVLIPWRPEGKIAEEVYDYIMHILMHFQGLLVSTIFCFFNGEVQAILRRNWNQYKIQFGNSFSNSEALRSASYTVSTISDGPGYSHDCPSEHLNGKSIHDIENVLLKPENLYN
Chain of hAM1 receptor (O60895 43-175 partner): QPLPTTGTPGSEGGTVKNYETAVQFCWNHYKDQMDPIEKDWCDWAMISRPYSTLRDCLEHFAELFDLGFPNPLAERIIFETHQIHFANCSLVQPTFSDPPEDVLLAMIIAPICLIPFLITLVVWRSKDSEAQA

## CC[C@H](C)[C@H](NC(=O)[C@H](CC(N)=O)NC(=O)[C@@H](NC(=O)[C@H](CCCNC(=N)N)NC(=O)[C@@H]1CCCN1C(=O)[C@H](C)NC(=O)[C@@H](NC(=O)[C@H](CC(N)=O)NC(=O)[C@H](CC(=O)O)NC(=O)[C@H](CCCCN)NC(=O)[C@H](CC(=O)O)NC(=O)[C@H](CCCCN)NC(=O)[C@H](CC(=O)O)NC(=O)[C@@H](NC(=O)[C@H](Cc1ccccc1)NC(=O)[C@H](CCC(N)=O)NC(=O)[C@H](Cc1ccc(O)cc1)NC(=O)[C@@H](NC(=O)[C@H](CCC(N)=O)NC(=O)[C@H](Cc1c[nH]cn1)NC(=O)[C@H](C)NC(=O)[C@H](CC(C)C)NC(=O)[C@H](CCCNC(=N)N)NC(=O)[C@H](CCC(N)=O)NC(=O)[C@@H](NC(=O)[C@@H](NC(=O)[C@@H]1CSSC[C@H](NC(=O)CN)C(=O)N[C@@H](CCCNC(=N)N)C(=O)N[C@@H](Cc2ccccc2)C(=O)NCC(=O)N[C@@H]([C@@H](C)O)C(=O)N1)[C@@H](C)O)C(C)C)[C@@H](C)CC)[C@@H](C)O)C(C)C)[C@@H](C)O)C(=O)NCC(=O)N1CCC[C@H]1C(=O)N[C@@H](CCC(N)=O)C(=O)NCC(=O)N1C[C@H](O)C[C@H]1C(N)=O [compound 46] (H-GCRFGTCTVQRLAHQIYQFTDKDKDNVAPRTNIGPQG[Hyp]-NH2; disulfide 2-7; N-terminus assumed)
hAMY3 receptor; [4]
  EC50: 0.011 nM
[1]
  Max ThT signal (%): 5.800%
[2]; 10 nmol/kg
  cumulative food intake, % to vehicle: 52.48%
  Average cumulative food intake: 23.3 g
[2]; 30 nmol/kg
  cumulative food intake, % to vehicle: 24.10%
  Average cumulative food intake: 10.7 g
[3]; [5]
  body weight day 28, % to vehicle: 94.13%
  Average body weight day 28 (gram): 674 gram
[3]; [6]
  body weight day 28, % to vehicle: 86.59%
  Average body weight day 28 (gram): 620 gram
[3]; [7]
  body weight day 28, % to vehicle: 86.31%
  Average body weight day 28 (gram): 618 gram

## CC[C@H](C)[C@H](NC(=O)[C@H](CCC(N)=O)NC(=O)[C@H](CCC(=O)O)NC(=O)[C@H](C)NC(=O)[C@H](CC(C)C)NC(=O)[C@H](CCCNC(=N)N)NC(=O)[C@H](CCC(N)=O)NC(=O)[C@@H](NC(=O)[C@@H](NC(=O)[C@@H]1CSSC[C@H](NC(=O)[C@H](CCCCN)NC(=O)CC[C@H](NC(=O)CCCCCCCCCCCCCCCCCCC(=O)O)C(=O)O)C(=O)N[C@@H](CC(N)=O)C(=O)N[C@@H]([C@@H](C)O)C(=O)N[C@@H](C)C(=O)N[C@@H]([C@@H](C)O)C(=O)N1)[C@@H](C)O)C(C)C)C(=O)N[C@@H](C)C(=O)N[C@@H](CCC(N)=O)C(=O)N[C@@H](Cc1ccccc1)C(=O)N[C@H](C(=O)N[C@@H](CC(=O)O)C(=O)N[C@@H](CCCCN)C(=O)N[C@@H](CC(=O)O)C(=O)N[C@@H](CCCCN)C(=O)N[C@@H](CC(=O)O)C(=O)N[C@@H](CC(N)=O)C(=O)N[C@H](C(=O)N[C@@H](C)C(=O)N1CCC[C@H]1C(=O)N1CCC[C@H]1C(=O)N[C@H](C(=O)N[C@@H](CC(N)=O)C(=O)N[C@H](C(=O)NCC(=O)N[C@@H](CO)C(=O)N[C@@H](CC(N)=O)C(=O)NCC(=O)N1C[C@H](O)C[C@H]1C(N)=O)C(C)C)[C@@H](C)O)C(C)C)[C@@H](C)O [compound 78] ({C20 diacid-γGlu}-KCNTATCTVQRLAEQIAQFTDKDKDNVAPPTNVGSNG[Hyp]-NH2; disulfide 2-7)
hAMY3 receptor
  EC50: 0.014 nM
hAM1 receptor
  EC50: > 5000 nM
[2]; 10 nmol/kg
  cumulative food intake, % to vehicle: 33.66%
  Average cumulative food intake: 13.7 g
[3]; [7]
  body weight day 28, % to vehicle: 88.53%
  Average body weight day 28 (gram): 687 gram

## CC[C@H](C)[C@H](NC(=O)[C@H](CCC(N)=O)NC(=O)[C@H](CCC(=O)O)NC(=O)[C@H](C)NC(=O)[C@H](CC(C)C)NC(=O)[C@H](CCCNC(=N)N)NC(=O)[C@H](CCC(N)=O)NC(=O)[C@@H](NC(=O)[C@@H](NC(=O)[C@@H]1CSSC[C@H](NC(=O)[C@@H](N)CCCCN)C(=O)N[C@@H](CC(N)=O)C(=O)N[C@@H]([C@@H](C)O)C(=O)N[C@@H](C)C(=O)N[C@@H]([C@@H](C)O)C(=O)N1)[C@@H](C)O)C(C)C)C(=O)N[C@@H](Cc1ccc(O)cc1)C(=O)N[C@@H](CCC(N)=O)C(=O)N[C@@H](Cc1ccccc1)C(=O)N[C@H](C(=O)N[C@@H](CC(=O)O)C(=O)N[C@@H](CCCCN)C(=O)N[C@@H](CC(=O)O)C(=O)N[C@@H](CCCCN)C(=O)N[C@@H](CC(=O)O)C(=O)N[C@@H](CC(N)=O)C(=O)N[C@H](C(=O)N[C@@H](C)C(=O)N1CCC[C@H]1C(=O)N1CCC[C@H]1C(=O)N[C@H](C(=O)N[C@@H](CC(N)=O)C(=O)N[C@H](C(=O)NCC(=O)N[C@@H](CO)C(=O)N[C@@H](CCCCNC(=O)COCCOCCNC(=O)COCCOCCNC(=O)CC[C@H](NC(=O)CCCCCCCCCCCCCCCCCCC(=O)O)C(=O)O)C(=O)NCC(=O)N1C[C@H](O)C[C@H]1C(N)=O)C(C)C)[C@@H](C)O)C(C)C)[C@@H](C)O [compound 6] (H-KCNTATCTVQRLAEQIYQFTDKDKDNVAPPTNVGSK([AEEA-AEEA-γGlu-C20 diacid])G[Hyp]-NH2; disulfide 2-7; N-terminus assumed)
hAMY3 receptor; [4]
  EC50: 0.006 nM
hAM1 receptor; [8]
  EC50: > 5000 nM
[2]; 10 nmol/kg
  cumulative food intake, % to vehicle: 65.63%
  Average cumulative food intake: 27.5 g

## CC[C@H](C)[C@H](NC(=O)[C@H](CCC(N)=O)NC(=O)[C@H](Cc1c[nH]cn1)NC(=O)[C@H](C)NC(=O)[C@H](CC(C)C)NC(=O)[C@H](CCCNC(=N)N)NC(=O)[C@H](CCC(N)=O)NC(=O)[C@@H](NC(=O)[C@@H](NC(=O)[C@@H]1CSSC[C@H](NC(=O)[C@H](CCCCN)NC(=O)CC[C@H](NC(=O)CCCCCCCCCCCCCCCCCCC(=O)O)C(=O)O)C(=O)N[C@@H](CC(N)=O)C(=O)N[C@@H]([C@@H](C)O)C(=O)N[C@@H](C)C(=O)N[C@@H]([C@@H](C)O)C(=O)N1)[C@@H](C)O)C(C)C)C(=O)N[C@@H](Cc1ccc(O)cc1)C(=O)N[C@@H](CCC(N)=O)C(=O)N[C@@H](Cc1ccccc1)C(=O)N[C@H](C(=O)N[C@@H](CC(=O)O)C(=O)N[C@@H](CCCCN)C(=O)N[C@@H](CC(=O)O)C(=O)N[C@@H](CCCCN)C(=O)N[C@@H](CC(=O)O)C(=O)N[C@@H](CC(N)=O)C(=O)N[C@H](C(=O)N[C@@H](C)C(=O)N1CCC[C@H]1C(=O)N1CCC[C@H]1C(=O)N[C@H](C(=O)N[C@@H](CCCCN)C(=O)N[C@H](C(=O)NCC(=O)N[C@@H](CO)C(=O)N[C@@H](CC(N)=O)C(=O)NCC(=O)N1C[C@H](O)C[C@H]1C(N)=O)C(C)C)[C@@H](C)O)C(C)C)[C@@H](C)O [compound 60] ({C20 diacid-γGlu}-KCNTATCTVQRLAHQIYQFTDKDKDNVAPPTKVGSNG[Hyp]-NH2; disulfide 2-7)
hAMY3 receptor; [4]
  EC50: 0.012 nM
hAM1 receptor; [8]
  EC50: > 5000 nM
[2]; 10 nmol/kg
  cumulative food intake, % to vehicle: 69.59%
  Average cumulative food intake: 30.9 g
[2]; 30 nmol/kg
  cumulative food intake, % to vehicle: 45.72%
  Average cumulative food intake: 20.3 g

Reference: US12139520B2 (priority 2020, dated 2024)
